Results from patent US10160986B2, “Chemoenzymatic synthesis of heparin and heparan sulfate analogs” (The Regents of the University of California, priority 2011, dated 2018).
Values belong to the compound of their own block, whether it stands above or below them.

Assays:
[1] = test system: necrotizing enterocolitis in neonatal rats; test: Necrotizing enterocolitis neonatal rat model; format: in vivo, Sprague-Dawley rats; settings: formula containing 300 μg/mL glycan; for mean ileum pathology score (0: healthy; 4: complete destruction): oral gavage twice daily, 96 hours, mean±standard deviation
Procedure: Rat studies. The efficacy of the synthesized glycans against necrotizing enterocolitis was tested in the same neonatal rat model as previously described for DSLNT. Briefly, pregnant time-dated Sprague-Dawley rats were induced at term and immediately randomized into one of the different study groups. Animals in the dam-fed group (DF) remained with the dam. All other animals were separated from the dam, housed in a temperature- and humidity-controlled incubator and orally gavaged with a special rodent formula (0.2 mL) twice daily. All animals, dam-fed and gavaged, were exposed to 10 min of hypoxia (5% O2, 95% N2) thrice daily in a modular chamber. All animals were sacrificed 96 hours post-partum, and 0.5 cm of the terminal ileum prepared for H&E staining per standard protocols and scored blindly based on morphological changes that included epithelial sloughing, villus edema, infiltration of neutrophils, apoptosis of villus enterocytes, crypt hyperplasia and misaligned nuclei in the epithelium. If at least one pathology sign was observed, a score of 0.5-1.5 was assigned depending on severity. […] The maximum score of 4 was given in case of complete obliteration of the epithelium with or without intestinal perforation. Pathology scores were plotted for each animal and the mean calculated per group. Differences between the groups were calculated by 1 way ANOVA with Kruskal-Wallis test and Dunn's Multiple Comparison test. Significance was defined as a P value of less than 0.05.

KfiA = test: Donor substrate specificity of KfiA by HPLC (Example 1); format: biochemical, E. coli; settings: acceptor GlcAα2AA 1 mM, UDP-sugar 1 mM, MnCl2 10 mM, pH 6.5, 37° C.
Procedure: (§1) pH profile by HPLC. Typical enzymatic assays were performed in a 10 μl reaction mixture containing a buffer (100 mM) with a pH in the range of 4.0-10.0, UDP-GlcNAc (1 mM), GlcAβ2AA (1 mM), MnCl2 (10 mM) and KfiA (9.0 μg) or PmHS2 (0.25 μg). Buffers used were: Na2HPO4/citric acid, pH 4.0; MES, pH 5.0-6.5; TrisHCl, pH 7.0-9.0; and CAPS, pH 10.0. Reactions were allowed to proceed for 30 min at 37° C. and were quenched by adding ice-cold 10% (v/v) acetonitrile to make 100-fold dilutions. The samples were then kept on ice until an aliquot of 8 μl was injected and analyzed by a Shimadzu LC-2010A system equipped with a membrane on-line degasser, a temperature control unit and a fluorescence detector. A reverse phase Premier C18 column (250 9 4.6 mm I.D., 5 μm particle size, Shimadzu) protected with a C18 guard column cartridge was used. The mobile phase was 25% (v/v) acetonitrile. The fluorescent compounds GlcAβ2AA and GlcNAcα1-4GlcAβ2AA were detected by excitation at 315 nm and emission at 400 nm.
(§2) Substrate specificity of KfiA and PmHS2. All reactions were carried out in duplicate at 37° C. in MES (100 mM, pH 6.5) containing an UDP-GlcNAc or its derivatives (1 mM), […] (1 mM), MnCl2 (10 mM) and KfiA ([…] PmHS2 (2.5×10^−2 μg μl^−1). At 30 min, 4 h or 16 h, aliquots of reaction mixture were withdrawn and were quenched by adding ice-cold 10% (v/v) acetonitrile to make 100-fold dilutions. The assays were analyzed by HPLC.

PmHS2 [2] = test: Donor substrate specificity of PmHS2 by HPLC (Example 1); format: biochemical, Pasteurella multocida; settings: acceptor GlcAα2AA 1 mM, UDP-sugar 1 mM, MnCl2 10 mM, pH 6.5, 37° C.
Procedure: as §1, §2

PmHS2 [3] = test: Small-scale PmHS2 donor substrate test by TLC; format: biochemical, Pasteurella multocida; settings: GlcAβ2AAMe 10 mM, donor 15 mM, MgCl2 10 mM, PmHS2 0.5 mg/mL, pH 7.5, 37° C., 12 hr
Procedure: Prior to applying the one-pot three-enzyme system shown in FIG. 16 to the preparative-scale synthesis of the disaccharides, UDP-GlcNAc and derivatives F17-1-F17-12 were tested as donor substrates for PmHS2 in small-scale reaction containing Tris-HCl buffer (100 mM, pH 7.5), GlcAβ2AAMe (10 mM), UDP-GlcNAc or a derivative (15 mM), MgCl2 (10 mM), and PmHS2 (0.5 mg/mL). The reactions were carried out at 37° C. for 12 hr and analyzed by thin layer chromatography (TLC).

[4] = test system: T1, MBP-KfiA-His6 (Escherichia coli); test: GlcNAcT donor substrate specificity of MBP-KfiA-His6 (Example 12); format: biochemical, E. coli; settings: acceptor GlcAβ2AA 1 mM, UDP-sugar 1 mM, MnCl2 10 mM, KfiA 2.8 μg μl^−1, 24 h, 37° C.
T1 construct: made in house; host or cells: E. coli BL21(DE3) co-expressing chaperone plasmid pGro7
Procedure: (§3) PmHS2, KfiA, and related fusion proteins were expressed, purified, and characterized as described in Example 1. Reactions with UDP-sugars were carried out in duplicate at 37° C. in MES (100 mM, pH 6.5) containing UDP-GlcNAc or one of its derivatives (1 mM), GlcAβ2AA (1 mM), MnCl2 (10 mM) and KfiA (2.8 μg μl^−1) or PmHS2 (1.1 μg μl^−1) for 24 h. The reaction mixtures were stopped by adding ice-cold 10% (v/v) acetonitrile to make 100-fold dilutions and the mixtures were analyzed by HPLC as described for the pH profile.
(§4) Substrate specificity of the GlcNAcT activities of MBP-KfiA-his6 and his6-PmHS2. […] The reactions were easily analyzed by high performance liquid chromatography (HPLC) equipped with a fluorescence detector using an excitation wavelength of 315 nm and an emission wavelength of 400 nm to determine the ratio of the fluorescent disaccharide product formed and the fluorescent GlcAβ2AA acceptor.

His6-PmHS2 = test: GlcNAcT donor substrate specificity of His6-PmHS2 (Example 12); format: biochemical, Pasteurella multocida; settings: acceptor GlcAβ2AA 1 mM, UDP-sugar 1 mM, MnCl2 10 mM, PmHS2 1.1 μg μl^−1, 24 h, 37° C.
Procedure: as §3, §4

AtGlcAK [5] = target: T2, AtGlcAK (Arabidopsis thaliana, UniProt Q93ZC9, I297M); test: AtGlcAK substrate specificity by TLC and LC-MS; format: biochemical; settings: sugar 10 mM, ATP 20 mM, AtGlcAK 22 μg, 37° C., 15 hr
T2 construct: made in house; host or cells: E. coli BL21 (DE3)
T2 sequence (Q93ZC9 other isoform, or with tags, fused parts or gaps I297M): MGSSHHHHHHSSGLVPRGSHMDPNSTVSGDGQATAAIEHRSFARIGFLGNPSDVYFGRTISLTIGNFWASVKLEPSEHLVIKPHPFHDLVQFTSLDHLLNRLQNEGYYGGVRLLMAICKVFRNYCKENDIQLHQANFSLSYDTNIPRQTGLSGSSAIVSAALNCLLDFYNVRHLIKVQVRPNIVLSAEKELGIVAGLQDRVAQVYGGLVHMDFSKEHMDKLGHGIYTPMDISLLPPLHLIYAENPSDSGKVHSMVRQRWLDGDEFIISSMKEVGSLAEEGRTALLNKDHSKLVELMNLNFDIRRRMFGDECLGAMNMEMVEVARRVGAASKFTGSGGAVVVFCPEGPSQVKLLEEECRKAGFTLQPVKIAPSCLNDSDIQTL
Procedure: Substrates specificity assays by thin-layer chromatography (TLC). […] For visualizing compounds on TLC plate, p-anisaldehyde sugar stain was used.
LC-MS assays for AtGlcAK reactions. The AtGlcAK reaction mixtures above were also analyzed by LC-MS. 2 μL of sample was diluted 100 fold and 8 μL was injected into a Waters spherisorb ODS-2 column (5 μm particles, 250 mm length, 4.6 mm I.D.). The sample was eluted with 30% acetonitrile in H2O with 0.1% formic acid and detected by ESI-MS in negative mode.

AtGlcAK [6] = target: T2, AtGlcAK; test: AtGlcAK substrate specificity CE assay; format: biochemical
Procedure: Substrate specificity assays. […] The reactions were quenched and assayed with the same method as those for pH profile. All reactions were performed in duplicates.

human FGF-1 = target: T3, human FGF-1 (Homo sapiens, UniProt P05230); test: Inhibition of FGF-1 binding to immobilized heparin-biotin; settings: compound 1 mM; FGF 1 μM
T3 construct: purchased PeproTech Inc (Rocky Hill, N.J.)
T3 sequence (P05230 whole entry): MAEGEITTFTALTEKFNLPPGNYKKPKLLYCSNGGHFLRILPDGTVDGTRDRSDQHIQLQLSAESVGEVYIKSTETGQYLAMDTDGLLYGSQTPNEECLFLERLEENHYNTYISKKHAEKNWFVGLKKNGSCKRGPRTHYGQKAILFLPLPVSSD
Excerpt: (§5) Materials. Recombinant human fibroblast growth factors FGF-1, FGF-2, FGF-4, and anti-human FGF-1, FGF-2, FGF-4 were purchased from PeproTech Inc (Rocky Hill, N.J.). Heparin-biotin was from Sigma (St. Louis, Mo.). Low molecular weight heparin (LMWH) was bought from AMS Biotechnology (Lake Forest, Calif.). Alexa Fluor® 488 goat anti-rabbit IgG (H+L) was from Invitrogen (Carlsbad, Calif.). 384-Well NeutrAvidin-coated plates for the sialidase assays were from Fisher Biotech.
(§6) Methods. All assays were carried out in duplicate in 384-well NeutrAvidin coated plates. Heparin-biotin (20 μL, 2 μM) was added to each well and the plate was incubated at 4° C. for overnight. The plate was washed with 3 rounds of 1×PBS buffer containing 0.05% Tween-20 and blocked with 1% BSA (50 μL for each well) and incubated at r.t. for 30 min. After the plate was washed three times with 1×PBS buffer containing 0.05% Tween-20, each set of duplicate wells were added 20 μL of human FGF-1, FGF-2, or FGF-4 (1 μM) with or without premixing with LMWH (˜22 nM or 0.1 μM), monosaccharide, or oligosaccharides (100 μM or 1 mM) and the plate was incubate at r.t. for 1 hr. After washing three times with 1×PBS buffer containing 0.05% Tween-20, anti-human FGF-1, FGF-2 or FGF-4 (20 μL) was added and the plate was incubated at r.t. for 1 hr. After the plate was washed three times with 1×PBS buffer containing 0.05% Tween-20, Alexa Fluor® 488 goat anti-rabbit IgG (H+L) (20 μL) was added and the plate was incubated at r.t. for 1 hr. After washed three times with 1×PBS buffer containing 0.05% Tween-20 and once with water, the fluorescent signals of wells in the plate were measured using a microtiter plate reader.

human FGF-2 = target: T4, human FGF-2 (Homo sapiens, UniProt P09038); test: Inhibition of FGF-2 binding to immobilized heparin-biotin; settings: compound 1 mM; FGF 1 μM
T4 construct: purchased PeproTech Inc (Rocky Hill, N.J.)
T4 sequence (P09038 134-288): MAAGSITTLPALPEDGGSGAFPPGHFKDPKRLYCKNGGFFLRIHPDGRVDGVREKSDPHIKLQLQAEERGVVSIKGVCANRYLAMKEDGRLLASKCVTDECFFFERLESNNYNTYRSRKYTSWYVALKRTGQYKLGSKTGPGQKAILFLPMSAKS
Excerpt: as §5, §6

Compound: CC(=O)N[C@H]1[C@H](O[C@H]2[C@@H](O)[C@@H](CO)O[C@@H](O[C@H]3[C@H](O)[C@@H](O)C(O)O[C@@H]3CO)[C@@H]2O)O[C@H](CO)[C@@H](O[C@@H]2O[C@H](CO)[C@H](O)[C@H](O[C@]3(C(=O)O)C[C@H](O)[C@@H](NC(C)=O)[C@H]([C@H](O)[C@H](O)CO)O3)[C@H]2O)[C@@H]1O (some centres unmarked) [3′″-sLNnT, Neu5Acα2-3Galβ1-4GlcNAcβ1-3Galβ1-4Glc]
NEC preventing effect in neonatal rats [1]: lacking of NEC preventing effect | mean ileum pathology score (0: healthy; 4: complete destruction) [1]: 2.05±0.55

Compound: CC(=O)N[C@H]1[C@@H](OP(=O)(O)OP(=O)(O)OC[C@H]2O[C@@H](n3ccc(=O)[nH]c3=O)[C@H](O)[C@@H]2O)O[C@H](CO)[C@@H](O)[C@@H]1O [Compound F17-1, Uridine 5′-diphospho-2-acetamido-2-Deoxy-α-D-glucopyranoside]
donor substrate for KfiA (KfiA): best substrate | donor substrate for PmHS2 (PmHS2 [2]): best substrate | donor substrate for PmHS2 (PmHS2 [3]): tolerable donor substrates | donor substrate for MBP-KfiA-His6 [4]: can be used by MBP-KfiA-His6 | donor substrate for the α1-4GlcNAcT activity of His6-PmHS2 (His6-PmHS2): suitable donor substrates for His6-PmHS2

Compound: O=C(NC1C(OP(=O)(O)OP(=O)(O)OCC2OC(n3ccc(=O)[nH]c3=O)C(O)C2O)OC(CO)C(O)C1O)C(F)(F)F [Compound F17-2, Uridine 5′-diphospho-2-deoxy-2-trifluoroacetamido-α-D-glucopyranoside]
donor substrate for KfiA (KfiA): can use | donor substrate for PmHS2 (PmHS2 [2]): can use | donor substrate for PmHS2 (PmHS2 [3]): tolerable donor substrates

Compound: O=C(CO)N[C@H]1[C@@H](OP(=O)(O)OP(=O)(O)OC[C@H]2O[C@@H](n3ccc(=O)[nH]c3=O)[C@H](O)[C@@H]2O)O[C@H](CO)[C@@H](O)[C@@H]1O [Compound F17-3, Uridine 5′-diphospho-2-hydroxyacetamido-2-deoxy-α-D-glucopyranoside]
donor substrate for KfiA (KfiA): can use | donor substrate for PmHS2 (PmHS2 [2]): can use | donor substrate for PmHS2 (PmHS2 [3]): tolerable donor substrates

Compound: [N-]=[N+]=NCC(=O)N[C@H]1[C@@H](OP(=O)(O)OP(=O)(O)OC[C@H]2O[C@@H](n3ccc(=O)[nH]c3=O)[C@H](O)[C@@H]2O)O[C@H](CO)[C@@H](O)[C@@H]1O [Compound F17-4, Uridine 5′-diphospho-2-azidoxyacetamido-2-deoxy-α-D-glucopyranoside]
donor substrate for KfiA (KfiA): can use | donor substrate for PmHS2 (PmHS2 [2]): can use | donor substrate for PmHS2 (PmHS2 [3]): tolerable donor substrates

Compound: O=C[C@H](O)[C@@H](O)[C@@H](O)[C@H](O)C(=O)O [GalA, galacturonic acid]
substrate for AtGlcAK (formation of sugar-1-phosphate) (AtGlcAK [5]): acceptable substrates | Percentage conversion of ATP (AtGlcAK [6]; High enzyme Conc. (2.1 μg in 20 μL, 60 min, 37° C.)): 15.3% | Percentage conversion of ATP (AtGlcAK [6]; Low enzyme Conc. (412 ng in 20 μL, 15 min, 37° C.)): 6.2%

Compound: O=C[C@@H](O)[C@H](O)[C@@H](O)[C@H](O)C(=O)O [IdoA, iduronic acid]
substrate for AtGlcAK (formation of sugar-1-phosphate) (AtGlcAK [5]): acceptable substrates

FGF-1 (% inhibition) (human FGF-1): 76%
Compound: GlcAβ1-4GlcNH2α1-4GlcAβ2AA [Compound F24-11]

FGF-1 (% inhibition) (human FGF-1): 62%
Compound: GlcNAc6N3α1-4GlcAβ1-4GlcNH2α1-4GlcAβ2AA [Compound F24-13]

FGF-1 (% inhibition) (human FGF-1): 58% | FGF-2 (% inhibition) (human FGF-2): 55%
Compound: GlcNAc6NSα1-4GlcAβ1-4GlcNSα1-4GlcAβ2AA [Compound F24-16]

Compound: Neu5Acα2-6Galβ1-4GlcNAcβ1-3(Neu5Acα2-6)Galβ1-4Glc [DSLNnT]
NEC preventing effect in neonatal rats [1]: protects neonatal rats from necrotizing enterocolitis | mean ileum pathology score (0: healthy; 4: complete destruction) [1]: 1.29±0.54
